We go through 14 compounds from ChEMBL document CHEMBL5120808, “6-Aryl-quinazolines as novel GABAB receptor positive allosteric modulators” (Bioorg Med Chem Lett, 2022).

The target of one data set is GABA-B receptor (Homo sapiens, UniProt O75899+Q9UBS5). As to the kind of experiment: Positive allosteric modulation of GABA-B receptor (unknown origin) assessed as stimulation of [35S]GTPgammaS binding by [35S]GTPgammaS binding assay. In kind it is functional.
Data set [1] is described as follows: Metabolic stability in human assessed as parent compound remaining. In kind it is ADME.
The nature of data set [2]: Metabolic stability in rat assessed as parent compound remaining. In kind it is ADME.
Data set [3] in a line: Metabolic stability in mouse assessed as parent compound remaining. The format is ADME.
Data set [4] in a line: AUC (0 to 24 hrs) in NMRI mouse plasma at 10 mg/kg, po measured up to 24 hrs. In kind it is ADME, organism-based. Further details: time < 24 hrs, dose 10 mg/kg, route po.
Data set [5] can be described thus: Cmax in NMRI mouse plasma at 10 mg/kg, po measured up to 24 hrs. The format is ADME, organism-based. More on the design: dose 10 mg/kg, time < 24 hrs, route po.
Data set [6] relates to Mus musculus. Kind of data set: Potentiation of baclofen induced skeletal muscle relaxation in NMRI mouse at 3 to 30 mg/kg, po by traction test. The settings on record: dose 3-30 mg/kg. In kind it is functional, organism-based.
The nature of data set [7]: Cmax in NMRI mouse brain at 10 mg/kg, po measured up to 24 hrs. Further details: time < 24 hrs, dose 10 mg/kg, route po. The format is ADME, organism-based.
The nature of data set [8]: AUC (0 to 24 hrs) in NMRI mouse brain at 10 mg/kg, po measured up to 24 hrs. In kind it is ADME, organism-based. More on the design: time < 24 hrs, dose 10 mg/kg, route po.
A short description of data set [9]: Tmax in NMRI mouse brain at 10 mg/kg, po measured up to 24 hrs. In kind it is ADME, organism-based.
A short description of data set [10]: Half life in NMRI mouse brain at 10 mg/kg, po measured up to 24 hrs. In kind it is ADME, organism-based.
Data set [11] concerns Mus musculus. As to the kind of experiment: Potentiation of baclofen induced skeletal muscle relaxation in po dosed NMRI mouse assessed as effective dose by Litchfield-Wilcoxon method. In kind it is functional.
The nature of data set [12]: Tmax in NMRI mouse plasma at 10 mg/kg, po measured up to 24 hrs. In kind it is ADME, organism-based.
Data set [13] deals with Mus musculus. As to the kind of experiment: Potentiation of baclofen induced loss of righting reflex in po dosed NMRI mouse assessed as effective dose by Litchfield-Wilcoxon method. The format is functional.

pEC50: −log10 of the molar value. Active and inactive are the calls of the source.

Chain of GABA-B receptor (Q9UBS5 whole entry): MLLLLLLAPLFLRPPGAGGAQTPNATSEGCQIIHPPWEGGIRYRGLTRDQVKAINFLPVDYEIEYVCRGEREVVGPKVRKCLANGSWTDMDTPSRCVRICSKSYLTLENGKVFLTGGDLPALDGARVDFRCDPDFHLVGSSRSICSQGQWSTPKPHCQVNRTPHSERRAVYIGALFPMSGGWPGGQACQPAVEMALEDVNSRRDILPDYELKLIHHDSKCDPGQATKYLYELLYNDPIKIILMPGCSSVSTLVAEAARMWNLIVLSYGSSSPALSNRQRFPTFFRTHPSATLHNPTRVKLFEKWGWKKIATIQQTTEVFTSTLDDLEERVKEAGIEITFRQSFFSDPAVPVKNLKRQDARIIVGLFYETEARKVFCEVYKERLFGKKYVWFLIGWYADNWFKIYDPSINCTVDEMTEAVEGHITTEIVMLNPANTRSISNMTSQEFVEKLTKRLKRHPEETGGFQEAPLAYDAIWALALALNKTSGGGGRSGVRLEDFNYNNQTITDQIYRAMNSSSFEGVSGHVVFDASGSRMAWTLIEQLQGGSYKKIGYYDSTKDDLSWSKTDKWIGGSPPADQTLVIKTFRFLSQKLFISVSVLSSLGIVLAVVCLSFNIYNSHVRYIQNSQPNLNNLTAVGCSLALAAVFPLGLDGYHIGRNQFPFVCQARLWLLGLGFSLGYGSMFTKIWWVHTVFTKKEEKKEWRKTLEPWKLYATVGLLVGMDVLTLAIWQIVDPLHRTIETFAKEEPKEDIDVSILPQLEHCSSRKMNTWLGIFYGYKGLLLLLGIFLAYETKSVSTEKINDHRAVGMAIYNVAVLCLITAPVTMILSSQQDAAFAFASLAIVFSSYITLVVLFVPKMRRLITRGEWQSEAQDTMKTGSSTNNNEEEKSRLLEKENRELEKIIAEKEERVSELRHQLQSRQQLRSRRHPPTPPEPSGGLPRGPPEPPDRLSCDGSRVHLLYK
Chain of GABA-B receptor (O75899 whole entry): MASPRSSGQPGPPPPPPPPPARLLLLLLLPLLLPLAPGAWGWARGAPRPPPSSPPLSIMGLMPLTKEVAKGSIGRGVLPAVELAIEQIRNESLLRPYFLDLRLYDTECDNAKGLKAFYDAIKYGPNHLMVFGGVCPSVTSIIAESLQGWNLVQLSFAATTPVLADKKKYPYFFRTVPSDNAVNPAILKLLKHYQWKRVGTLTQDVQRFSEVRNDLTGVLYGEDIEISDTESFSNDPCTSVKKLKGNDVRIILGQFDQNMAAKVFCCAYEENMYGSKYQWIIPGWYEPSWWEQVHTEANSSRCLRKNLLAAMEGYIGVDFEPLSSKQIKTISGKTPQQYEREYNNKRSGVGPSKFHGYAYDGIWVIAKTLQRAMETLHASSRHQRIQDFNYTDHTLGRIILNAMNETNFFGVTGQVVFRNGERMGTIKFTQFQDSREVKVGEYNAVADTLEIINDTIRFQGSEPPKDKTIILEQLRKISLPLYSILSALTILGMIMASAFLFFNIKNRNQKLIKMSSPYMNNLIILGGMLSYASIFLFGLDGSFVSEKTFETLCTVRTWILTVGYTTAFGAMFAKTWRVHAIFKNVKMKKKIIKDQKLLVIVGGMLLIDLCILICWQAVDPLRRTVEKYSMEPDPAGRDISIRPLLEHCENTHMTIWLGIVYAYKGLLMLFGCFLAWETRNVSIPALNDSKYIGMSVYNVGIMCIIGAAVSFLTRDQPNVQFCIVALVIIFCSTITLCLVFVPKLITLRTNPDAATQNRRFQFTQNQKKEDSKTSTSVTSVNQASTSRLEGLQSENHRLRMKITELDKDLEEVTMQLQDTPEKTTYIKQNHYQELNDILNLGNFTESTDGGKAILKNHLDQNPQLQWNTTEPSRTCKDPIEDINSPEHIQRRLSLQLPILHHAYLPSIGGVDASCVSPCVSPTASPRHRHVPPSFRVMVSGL

With `Cc1nc(N[C@@H]2C[C@H]3CC[C@@H]2C3)c2cc(-c3ccc(C(F)(F)F)cc3)ccc2n1`, on GABA-B receptor, the pEC50 was 6.11. Besides, the Stability is 66% in data set [1], 77% in data set [2] and 66% in [3].

Turning to `Clc1cc(Cl)cc(-c2ccc3nc(Cl)nc(N[C@@H]4C[C@H]5CC[C@@H]4C5)c3c2)c1`, the Stability in data set [1] is listed as 85%; in data set [2], 76%; in data set [3], 62%.

Take `FC(F)(F)c1ccc(-c2ccc3nc(Cl)nc(N[C@@H]4C[C@H]5CC[C@@H]4C5)c3c2)cc1`: the AUC(0-t) at 24 h in data set [4] stood at 4660 ng·h/mL; in data set [8] it was 852 ng·h/mL. For the same compound, the pEC50 at GABA-B receptor was 6.20. In addition, the figures for the Stability in data set [1], in data set [2] and in data set [3] were 73%, 84% and 95%, respectively. The maximum concentration (Cmax) is 586 ng/mL in data set [5] and 100 ng/mL in data set [7]. Moreover, the outcome with Mus musculus [6] was Active. Further, the Tmax in data set [9] was found to be 2 h; in [12], 1 h. Also, the half-life in [10] is 8.94 h. Further, the ED50 in the data set with Mus musculus [11] is 8.1 mg/kg; with Mus musculus [13], 2.9 mg/kg.

`Cc1nc(N[C@@H]2C[C@H]3CC[C@@H]2C3)c2cc(-c3cccc(Cl)c3)ccc2n1`: on GABA-B receptor, the pEC50 is 6.70. Further, the Stability in [1] came to 50%; in [2], 23%; in data set [3], 27%.

For `Cc1nc(N[C@@H]2C[C@H]3CC[C@@H]2C3)c2cc(-c3ccc(Cl)cc3)ccc2n1`, the negative logarithm of the EC50 (pEC50) on GABA-B receptor is 6.35. Besides, the Stability in [1] is reported as 47%; in data set [2], 49%; in data set [3], 39%. The 50% effective dose (ED50) in the data set on Mus musculus [11] came to 12.7 mg/kg.

As for `Cc1ncc(-c2ccc(C(F)(F)F)cc2)c(N[C@@H]2C[C@H]3CC[C@@H]2C3)n1`, the Stability in data set [1] stood at 65%; in [2], 24%; in data set [3] it was 42%.

`Fc1ccc(-c2ccc3nc(Cl)nc(N[C@@H]4C[C@H]5CC[C@@H]4C5)c3c2)cc1`: the negative logarithm of the EC50 (pEC50) at GABA-B receptor was 6.53. Further, the Stability in [1] turned out to be 47%; in [2], 36%; in data set [3] it was 53%.

Regarding `Cc1nc(N[C@@H]2C[C@H]3CC[C@@H]2C3)c2cc(-c3cc(Cl)cc(Cl)c3)ccc2n1`, the negative logarithm of the EC50 (pEC50) at GABA-B receptor is 7.01. Besides, the results for the Stability in data set [1], in [2] and in data set [3] were 62%, 37% and 44%, respectively.

As to `Clc1ccc(-c2ccc3nc(Cl)nc(N[C@@H]4C[C@H]5CC[C@@H]4C5)c3c2)cc1`, the pEC50 on GABA-B receptor is 6.68. The Stability is on record as 46% in data set [1], 85% in data set [2] and 40% in [3]. Moreover, in the data set on Mus musculus [11], the 50% effective dose (ED50) was found to be 25.6 mg/kg.

As for `Cc1nc(N[C@@H]2C[C@H]3CC[C@@H]2C3)c2cc(-c3cccc(C(F)(F)F)c3)ccc2n1`, the pEC50 at GABA-B receptor is 6.85. The Stability in data set [1] is 75%; in data set [2] it was 41%; in data set [3] it was 41%.

Regarding `Cc1nc(N[C@@H]2C[C@H]3CC[C@@H]2C3)c2cc(-c3ccc(Cl)c(Cl)c3)ccc2n1`, the pEC50 at GABA-B receptor was 6.38. Further, the Stability in [1] is listed as 56%; in [2] it was 63%; in data set [3], 74%.

In the case of `Clc1nc(N[C@@H]2C[C@H]3CC[C@@H]2C3)c2cc(-c3ccc(Cl)c(Cl)c3)ccc2n1`, the negative logarithm of the EC50 (pEC50) at GABA-B receptor is 6.47. Moreover, the Stability is recorded as 69% in data set [1], 59% in [2] and 67% in [3].

Take `Cc1nc(N[C@@H]2C[C@H]3CC[C@@H]2C3)c2cc(-c3ccccc3Cl)ccc2n1`: the pEC50 on GABA-B receptor is 6.30. In addition, the Stability in [1] is given as 57%; in data set [2] it was 31%; in data set [3], 23%.

`FC(F)(F)c1cccc(-c2ccc3nc(Cl)nc(N[C@@H]4C[C@H]5CC[C@@H]4C5)c3c2)c1`: the pEC50 at GABA-B receptor was 7.05. The Stability in data set [1] is 58%; in data set [2] it was 67%; in data set [3] it was 63%.

What is called pEC50 is the EC50 on a negative log10 scale, so that one unit is a factor of ten. As usually defined, the AUC(0-t) is exposure summed from dosing to a finite time, without extrapolation to infinity. A lower AUC(0-t) goes with low exposure. As a reminder, the Cmax is the peak of the concentration-time curve. One may read the Tmax as the time from dosing to the highest level. The half-life is the time needed for the level to fall by half in the phase considered. Read a low half-life as fast loss. A word on the ED50: it is the dose at which the effect has come halfway, by size or by number of responders.
